Results from patent US7138361B2, “Herbicidal heterocycles” (E. I. du Pont de Nemours and Company, priority 2000, dated 2006).

What was measured:
Format in all cases: in vivo
[1] = test system: Surinam grass (Brachiaria decumbens); test: Test B postemergence
In short: (§1)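 Preemergence: seeds planted and treated with test chemicals in non-phytotoxic solvent with surfactant; postemergence on plants 2–18 cm (1- to 4-leaf stage). Kept in greenhouse 13–15 days, then visually rated against controls on a 0 (no effect) to 100 (complete control) scale.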

[2] = test system: barnyardgrass (Echinochloa crus-galli); test: Test B postemergence
In short: as §1

[3] = test system: blackgrass (Alopecurus myosuroides); test: Test B postemergence
In short: as §1

[4] = test system: cocklebur (Xanthium strumarium); test: Test B postemergence
In short: as §1

corn (Zea mays) [5] = test: Test B postemergence
In short: as §1

[6] = test system: crabgrass (Digitaria sanguinalis); test: Test B postemergence
In short: as §1

[7] = test system: giant foxtail (Setaria faberii); test: Test B postemergence
In short: as §1

[8] = test system: lambsquarters (Chenopodium album); test: Test B postemergence
In short: as §1

[9] = test system: morning glory (Ipomoea hederacea); test: Test B postemergence
In short: as §1

[10] = test system: pigweed (Amaranthus retroflexus); test: Test B postemergence
In short: as §1

[11] = test system: velvetleaf (Abutilon theophrasti); test: Test B postemergence
In short: as §1

[12] = test system: wheat (Triticum aestivum); test: Test B postemergence
In short: as §1

wild oat (Avena fatua) = test: Test B postemergence
In short: as §1

[13] = test system: Surinam grass (Brachiaria decumbens); test: Test B preemergence
In short: as §1

[14] = test system: barnyardgrass (Echinochloa crus-galli); test: Test B preemergence
In short: as §1

[15] = test system: cocklebur (Xanthium strumarium); test: Test B preemergence
In short: as §1

corn (Zea mays) [16] = test: Test B preemergence
In short: as §1

[17] = test system: crabgrass (Digitaria sanguinalis); test: Test B preemergence
In short: as §1

[18] = test system: giant foxtail (Setaria faberii); test: Test B preemergence
In short: as §1

[19] = test system: lambsquarters (Chenopodium album); test: Test B preemergence
In short: as §1

[20] = test system: morning glory (Ipomoea hederacea); test: Test B preemergence
In short: as §1

[21] = test system: pigweed (Amaranthus retroflexus); test: Test B preemergence
In short: as §1

rice (Oryza saliva) [22] = test: Test B preemergence
In short: as §1

[23] = test system: velvetleaf (Abutilon theophrasti); test: Test B preemergence
In short: as §1

[24] = test system: barnyardgrass (Echinochloa crus-galli); test: Test C flooded paddy test; conditions: for Barnyardgrass plant response rating: Flooded Paddy, scale 0 to 100, 0 no effect, 100 complete control; for Plant response rating, Barnyardgrass: flooded paddy test, scale 0 to 100 (0 no effect, 100 complete control)
In short: (§2)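 Flooded paddy, 2-leaf stage at treatment. Readout: visual % control vs untreated, 0–100, at 12–14 d in greenhouse.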

[25] = test system: duck salad (Heteranthera limosa); test: Test C flooded paddy test; conditions: for Ducksalad plant response rating: Flooded Paddy, scale 0 to 100, 0 no effect, 100 complete control; for Plant response rating, Ducksalad: flooded paddy test, scale 0 to 100 (0 no effect, 100 complete control)
In short: as §2

rice (Oryza saliva) [26] = test: Test C flooded paddy test; conditions: for Rice plant response rating: Flooded Paddy, scale 0 to 100, 0 no effect, 100 complete control; for Plant response rating, Rice: flooded paddy test, scale 0 to 100 (0 no effect, 100 complete control)
In short: as §2

[27] = test system: smallflower flatsedge (Cyperus difformis); test: Test C flooded paddy test; conditions: for Flatsedge plant response rating: Flooded Paddy, scale 0 to 100, 0 no effect, 100 complete control; for Plant response rating, Flatsedge: flooded paddy test, scale 0 to 100 (0 no effect, 100 complete control)
In short: as §2

[28] = Rate 125 g/ha, scale 0 to 100, 0 no effect, 100 complete control
[29] = Rate 500 g/ha, scale 0 to 100, 0 is no effect, 100 is complete control, 13 to 15 days
[30] = Preemergence, Rate 500 g/ha, scale 0 to 100, 0 no effect, 100 complete control
[31] = preemergence, Rate 125 g/ha, scale of 0 to 100 where 0 is no effect and 100 is complete control, 13 to 15 days

## CCCCC(CCCC)c1ccn(C2OCN(c3cccc(OC(F)(F)F)c3)C2=O)n1 (stereo not shown) [Compound 113]
[1]; [28]
  Plant response rating, Surinam grass: 0
[1]; [29]
  Plant response rating, Surinam grass: 0
[2]; [28]
  Plant response rating, Barnyardgrass: 0
[2]; [29]
  Plant response rating, Barnyardgrass: 0
[3]; [28]
  Plant response rating, Blackgrass: 0
[3]; [29]
  Plant response rating, Blackgrass: 0
[4]; [28]
  Plant response rating, Cocklebur: 0
[4]; [29]
  Plant response rating, Cocklebur: 70
Corn (Zea mays) [5]; [28]
  Plant response rating, Corn: 0
Corn (Zea mays) [5]; [29]
  Plant response rating, Corn: 0
[6]; [28]
  Plant response rating, Crabgrass: 40
[6]; [29]
  Plant response rating, Crabgrass: 40
[7]; [28]
  Plant response rating, Foxtail, Giant: 0
[7]; [29]
  Plant response rating, Foxtail, Giant: 20
[8]; [28]
  Plant response rating, Lambsquarters: 30
[8]; [29]
  Plant response rating, Lambsquarters: 100
[9]; [28]
  Plant response rating, Morningglory: 0
[9]; [29]
  Plant response rating, Morningglory: 30
[10]; [28]
  Plant response rating, Pigweed: 100
[10]; [29]
  Plant response rating, Pigweed: 100
[11]; [28]
  Plant response rating, Velvetleaf: 0
[11]; [29]
  Plant response rating, Velvetleaf: 0
[12]; [28]
  Plant response rating, Wheat: 30
[12]; [29]
  Plant response rating, Wheat: 30
Wild oat (Avena fatua); [28]
  Plant response rating, Wild Oat: 40
Wild oat (Avena fatua); [29]
  Plant response rating, Wild Oat: 40
[13]; [30]
  Plant response rating, Surinam grass: 0
[13]; [31]
  Plant response rating, Surinam grass: 0
[14]; [30]
  Plant response rating, Barnyardgrass: 0
[14]; [31]
  Plant response rating, Barnyardgrass: 0
[15]; [30]
  Plant response rating, Cocklebur: 0
[15]; [31]
  Plant response rating, Cocklebur: 0
Corn (Zea mays) [16]; [30]
  Plant response rating, Corn: 0
Corn (Zea mays) [16]; [31]
  Plant response rating, Corn: 0
[17]; [30]
  Plant response rating, Crabgrass: 0
[17]; [31]
  Plant response rating, Crabgrass: 0
[18]; [30]
  Plant response rating, Foxtail, Giant: 0
[18]; [31]
  Plant response rating, Foxtail, Giant: 0
[19]; [30]
  Plant response rating, Lambsquarters: 0
[19]; [31]
  Plant response rating, Lambsquarters: 0
[20]; [30]
  Plant response rating, Morningglory: 0
[20]; [31]
  Plant response rating, Morningglory: 0
[21]; [30]
  Plant response rating, Pigweed: 0
[21]; [31]
  Plant response rating, Pigweed: 0
Rice (Oryza saliva) [22]; [30]
  Plant response rating, Rice: 0
Rice (Oryza saliva) [22]; [31]
  Plant response rating, Rice: 0
[23]; [30]
  Plant response rating, Velvetleaf: 0
[23]; [31]
  Plant response rating, Velvetleaf: 0
[24]; Rate 250 g/ha
  Barnyardgrass plant response rating: 0
[24]; Rate 500 g/ha
  Barnyardgrass plant response rating: 0
[24]; Rate 62 g/ha
  Plant response rating, Barnyardgrass: 0
[24]; Rate 125 g/ha
  Plant response rating, Barnyardgrass: 0
[25]; Rate 250 g/ha
  Ducksalad plant response rating: 0
[25]; Rate 500 g/ha
  Ducksalad plant response rating: 0
[25]; Rate 62 g/ha
  Plant response rating, Ducksalad: 0
[25]; Rate 125 g/ha
  Plant response rating, Ducksalad: 0
Rice (Oryza saliva) [26]; Rate 250 g/ha
  Rice plant response rating: 0
Rice (Oryza saliva) [26]; Rate 500 g/ha
  Rice plant response rating: 0
Rice (Oryza saliva) [26]; Rate 62 g/ha
  Plant response rating, Rice: 0
Rice (Oryza saliva) [26]; Rate 125 g/ha
  Plant response rating, Rice: 0
[27]; Rate 250 g/ha
  Flatsedge plant response rating: 0
[27]; Rate 500 g/ha
  Flatsedge plant response rating: 0
[27]; Rate 62 g/ha
  Plant response rating, Flatsedge: 0
[27]; Rate 125 g/ha
  Plant response rating, Flatsedge: 0
